Structures can show the parent of a compound that is named as a salt.
Biological target: Sodium-dependent serotonin transporter (Rattus norvegicus) (UniProt P31652)
Test: Inhibition of binding of [3H]imipramine to imipramine receptor in rat brain

Chain of Sodium-dependent serotonin transporter (Rattus norvegicus) (P31652 whole entry, looked up): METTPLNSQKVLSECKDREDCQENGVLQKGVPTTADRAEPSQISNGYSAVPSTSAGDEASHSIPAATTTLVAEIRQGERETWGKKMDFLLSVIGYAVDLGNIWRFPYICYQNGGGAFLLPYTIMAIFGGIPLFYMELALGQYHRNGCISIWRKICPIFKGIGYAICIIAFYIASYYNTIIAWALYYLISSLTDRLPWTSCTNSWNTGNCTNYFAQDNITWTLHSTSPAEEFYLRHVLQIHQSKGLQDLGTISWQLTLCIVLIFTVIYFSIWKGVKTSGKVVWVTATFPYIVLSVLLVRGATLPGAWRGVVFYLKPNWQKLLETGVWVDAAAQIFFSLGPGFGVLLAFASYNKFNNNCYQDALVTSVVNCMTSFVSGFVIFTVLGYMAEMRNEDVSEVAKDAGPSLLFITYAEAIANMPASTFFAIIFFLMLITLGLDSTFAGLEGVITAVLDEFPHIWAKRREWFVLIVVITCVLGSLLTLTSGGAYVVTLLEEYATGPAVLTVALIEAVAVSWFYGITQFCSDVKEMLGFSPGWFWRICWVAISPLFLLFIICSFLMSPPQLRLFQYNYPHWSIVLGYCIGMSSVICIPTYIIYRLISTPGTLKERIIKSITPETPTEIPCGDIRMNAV

SMILES | IC50 [nM]
COc1ccc(C(CN2CCCCC2)C2(O)CCCCC2)cc1 (stereo not given) | > 10000
CN(C)CC(c1ccccc1O)C1(O)CCCCC1 (stereo not given) | > 10000
COc1ccc(C(CN(C)C)C2(O)CCCCC2)cc1OC (stereo not given) | 700
COc1ccc(C(CN(C)C)C2(O)CCCCCC2)cc1 (stereo not given) | 300
CN(C)CC(c1ccccc1Cl)C1(O)CCCCC1 (stereo not given) [1-(1-(2-chlorophenyl)-2-(dimethylamino)ethyl)cyclohexanol] | 523
CN(C)CC(c1ccccc1Br)C1(O)CCCCC1 (stereo not given) | 260
COc1ccc(C(CN2CCOCC2)C2(O)CCCCC2)cc1 (stereo not given) | > 10000
CNCC(c1ccc(OC)cc1)C1(O)CCCCC1 (stereo not given) [N-Desmethylvenlafaxine] | 300
COc1ccc(C(CN2CCCC2)C2(O)CCCCC2)cc1 (stereo not given) | > 10000
COc1ccc(C(CN)C2(O)CCCCC2)cc1 (stereo not given) | 900
CN(C)CC(c1ccc(Br)cc1)C1(O)CCC1 (stereo not given) | 435
COc1ccc(C(CN(C)C)C2(O)CCCCCCC2)cc1 (stereo not given) | > 10000
CN(C)CC(c1ccc(N)cc1)C1(O)CCCCC1 (stereo not given) | > 10000

The next compounds have a lower IC50 than those just listed; values first:

IC50 [nM] | SMILES
250 | CN(C)CC(c1ccc([N+](=O)[O-])cc1)C1(O)CCCCC1 (stereo not given)
205 | Cc1ccc(C(CN(C)C)C2(O)CCCCC2)cc1 (stereo not given)
190 | COc1ccc(C(CN(C)C)C2(O)CCCCC2)cc1Br (stereo not given)
150 | COc1cccc(C(CN(C)C)C2(O)CCCCC2)c1 (stereo not given) [1-(2-(dimethylamino)-1-(3-methoxyphenyl)ethyl)cyclohexanol]
130 | CN(C)CC(c1cccc(Cl)c1)C1(O)CCCCC1 (stereo not given)
126 | COc1ccc(C(CN(C)C)C2(O)CCCC2)cc1 (stereo not given)
100 | CN(C)CC(c1ccc(Cl)cc1)C1(O)CCCCC1 (stereo not given) [1-[1-(4-Chloro-phenyl)-2-dimethylamino-ethyl]-cyclohexanol (HCl)]
95 | COc1cccc(C(CN(C)C)C2(O)CCCC2)c1 (stereo not given)
88 | CN(C)CC(c1ccc(C(F)(F)F)cc1)C1(O)CCCCC1 (stereo not given)
62 | CN(C)CC(c1ccc(Br)cc1)C1(O)CCCCC1 (stereo not given)
52 | CN(C)CC(c1cccc(Br)c1)C1(O)CCCCC1 (stereo not given)
37 | CN(C)CC(c1ccc(Cl)c(Cl)c1)C1(O)CCCCC1 (stereo not given)

From BindingDB's records for doi:10.1021/jm00172a035 (Wyeth-Ayerst Research, 1990)
